From publication PMC6151589, “Identification of Optically Active Pyrimidine Derivatives as Selective 5-HT2C Modulators” (Molecules : A Journal of Synthetic Chemistry and Natural …, 2017)
Where two headings read alike, the source gives them in different places.

Assays:
5-HT2B = target: T1, 5-HT2B (Homo sapiens, UniProt P41595); assay: radioligand displacement, membranes; assay type: binding
T1 construct: gene HTR2B; human recombinant receptor; crude membrane fractions of transfected HEK293 or CHO cells
Description: radioligand displacement, membranes on 5-HT2B

5-HT2C = target: T2, 5-HT2C (Homo sapiens, UniProt P28335); assay: radioligand displacement, membranes; assay type: binding
T2 construct: gene HTR2C; human recombinant receptor; crude membrane fractions of transfected cells (CHO-K1; HEK293 or CHO)
T2 sequence (P28335 33-458): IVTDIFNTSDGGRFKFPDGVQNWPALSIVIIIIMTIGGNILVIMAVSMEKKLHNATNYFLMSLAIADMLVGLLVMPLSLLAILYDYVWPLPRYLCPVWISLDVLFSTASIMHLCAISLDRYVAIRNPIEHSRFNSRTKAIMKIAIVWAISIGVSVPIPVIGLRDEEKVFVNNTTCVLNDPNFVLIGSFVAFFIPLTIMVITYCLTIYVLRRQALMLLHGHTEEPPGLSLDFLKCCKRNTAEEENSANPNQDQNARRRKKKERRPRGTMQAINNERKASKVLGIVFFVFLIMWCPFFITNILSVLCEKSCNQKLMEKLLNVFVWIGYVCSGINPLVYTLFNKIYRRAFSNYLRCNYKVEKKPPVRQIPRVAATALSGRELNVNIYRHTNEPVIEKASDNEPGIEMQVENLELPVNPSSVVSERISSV
Description: radioligand displacement, membranes on 5-HT2C

5-HT1A = target: T3, 5-HT1A (Homo sapiens, UniProt P08908); assay: biochemical; design: species or system HEK293 or CHO; competitive radioligand binding on crude membranes, filtration and scintillation counting; conditions: for Ki: read-out: Ki (nM), 1A
T3 construct: gene HTR1A; human recombinant receptor, crude membranes of HEK293 or CHO cells
T3 sequence (P08908 1-422): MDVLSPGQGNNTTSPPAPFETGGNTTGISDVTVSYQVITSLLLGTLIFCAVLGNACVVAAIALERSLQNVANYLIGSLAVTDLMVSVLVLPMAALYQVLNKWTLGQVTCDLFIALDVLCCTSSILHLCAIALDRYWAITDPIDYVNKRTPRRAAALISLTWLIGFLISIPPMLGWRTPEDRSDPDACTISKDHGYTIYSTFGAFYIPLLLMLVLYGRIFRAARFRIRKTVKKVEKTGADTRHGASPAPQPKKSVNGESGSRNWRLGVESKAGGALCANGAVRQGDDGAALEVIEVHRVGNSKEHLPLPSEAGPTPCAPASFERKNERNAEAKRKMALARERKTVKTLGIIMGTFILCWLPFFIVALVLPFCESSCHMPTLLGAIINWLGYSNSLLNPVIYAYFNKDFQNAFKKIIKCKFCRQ
Protocol: (§1) Eleven dilutions (5 × assay concentration) of the test and reference compounds (Table S1) were prepared in standard binding buffer (50 mM tris(hydroxymethyl)-aminomethane-HCl (Tris-HCl), 10 mM MgCl2, 1 mM ethylenediaminetetraacetate (EDTA), pH 7.4) by serial dilution: 0.05 nM, 0.5 nM, 1.5 nM, 5 nM, 15 nM, 50 nM, 150 nM, 500 nM, 1.5 μM, 5 μM, and 50 μM. The radioligand (Table S3) was diluted to five times the assay concentration in standard binding buffer. Aliquots ([…]) of the radioligand were dispensed into the wells of a 96-well plate containing […] of standard binding buffer. Triplicate aliquots ([…]) of the test and reference compound dilutions were then added. Finally, crude membrane fractions ([…]) of cells (HEK293 or CHO) expressing human recombinant receptors were dispensed into each well. A total of […] of the reaction mixtures was incubated at room temperature and shielded from light for 1.5 h, and was then harvested by rapid filtration onto Whatman GF/B glass fiber filters presoaked with 0.3% polyethyleneimine, by using a 96-well Brandel harvester (Gaithersburg, MD, USA). Four rapid washes were performed with chilled standard binding buffer (500 mL) to decrease nonspecific binding. Filters were placed in 6 mL scintillation tubes and allowed to dry overnight. The next day, 4-mL of EcoScint scintillation cocktail (National Diagnostics) was added to each tube. The tubes were capped, labeled, and counted by […] scintillation counting. The filter mats were dried, and the scintillant was melted onto the filters, then the radioactivity retained on the filters was counted in a Microbeta scintillation counter. The IC50 values were obtained by using the Prism 4.0 program (GraphPad Software, La Jolla, CA, USA) and were converted into Ki values. Each compound was tested at least in triplicate. With each enantiomer (R)- or (S)-5d and 5e in hand, the optically active pyrimidine derivatives 4d–4e were synthesized following the same reaction sequences (Scheme 3). Finally, compounds 4d and 4e were assessed for their binding affinity to 5-HT2 receptor subtypes by radioligand binding assays. […] A further evaluation of these compounds for other 5-HT receptor subtypes was also performed and is provided in the supplementary data (Table S2). […] Considering the potencies and selectivities of 4, we can conclude that (R,R)-4e would be a viable candidate for a selective 5-HT2C modulator.

5-HT1E = target: T4, 5-HT1E (Homo sapiens, UniProt P28566); assay: biochemical; design: species or system HEK293 or CHO; competitive radioligand binding on crude membranes, filtration and scintillation counting; conditions: for Ki: read-out: Ki (nM), 1E
T4 construct: gene HTR1E; human recombinant receptor, crude membranes of HEK293 or CHO cells
Protocol: as §1

5-HT5A = target: T5, 5-HT5A (Homo sapiens, UniProt P47898); assay: biochemical; design: species or system HEK293 or CHO; competitive radioligand binding on crude membranes, filtration and scintillation counting
T5 construct: gene HTR5A; human recombinant receptor, crude membranes of HEK293 or CHO cells
Protocol: as §1

T4 sequence (P28566 whole entry): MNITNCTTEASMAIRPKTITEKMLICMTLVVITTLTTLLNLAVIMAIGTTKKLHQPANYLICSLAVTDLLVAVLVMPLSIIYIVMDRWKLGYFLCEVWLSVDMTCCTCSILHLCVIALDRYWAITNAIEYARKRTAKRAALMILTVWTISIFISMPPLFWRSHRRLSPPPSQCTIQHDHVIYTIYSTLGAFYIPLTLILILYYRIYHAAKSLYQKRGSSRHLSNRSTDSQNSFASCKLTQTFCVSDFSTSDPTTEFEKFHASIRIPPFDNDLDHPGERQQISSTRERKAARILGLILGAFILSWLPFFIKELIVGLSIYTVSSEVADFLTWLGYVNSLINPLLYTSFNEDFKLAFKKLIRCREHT
T1 sequence (P41595 whole entry): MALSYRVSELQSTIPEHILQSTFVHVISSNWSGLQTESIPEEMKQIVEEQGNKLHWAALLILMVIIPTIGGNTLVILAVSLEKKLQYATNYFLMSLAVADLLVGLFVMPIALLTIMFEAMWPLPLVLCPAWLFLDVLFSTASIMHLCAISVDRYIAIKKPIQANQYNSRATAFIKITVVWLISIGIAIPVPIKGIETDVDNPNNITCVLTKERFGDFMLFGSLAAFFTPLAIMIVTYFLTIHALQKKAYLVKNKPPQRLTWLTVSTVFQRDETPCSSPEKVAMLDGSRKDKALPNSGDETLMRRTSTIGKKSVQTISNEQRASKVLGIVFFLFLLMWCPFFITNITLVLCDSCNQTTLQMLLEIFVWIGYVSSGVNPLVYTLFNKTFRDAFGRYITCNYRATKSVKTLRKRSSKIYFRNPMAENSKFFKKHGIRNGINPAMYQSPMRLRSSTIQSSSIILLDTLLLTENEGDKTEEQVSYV
T5 sequence (P47898 whole entry): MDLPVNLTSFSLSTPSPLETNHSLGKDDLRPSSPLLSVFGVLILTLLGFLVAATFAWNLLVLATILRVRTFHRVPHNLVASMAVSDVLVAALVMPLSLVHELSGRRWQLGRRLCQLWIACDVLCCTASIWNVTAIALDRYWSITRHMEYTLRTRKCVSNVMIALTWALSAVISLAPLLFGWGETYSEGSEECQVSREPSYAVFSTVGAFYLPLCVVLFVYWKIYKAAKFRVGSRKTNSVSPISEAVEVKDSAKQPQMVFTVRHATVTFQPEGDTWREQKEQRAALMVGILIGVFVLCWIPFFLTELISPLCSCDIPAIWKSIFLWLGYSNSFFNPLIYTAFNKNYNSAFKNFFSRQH

Compound	Ki (5-HT2B)	Ki (5-HT2C)	inhibition at 10 µM (5-HT1A)	Ki (5-HT1A)	inhibition at 10 µM (5-HT1E)	Ki (5-HT1E)	inhibition at 10 µM (5-HT5A)	Ki (5-HT2B; pH […] MgCl2, room temperature, reference compound, may stem from the authors' earlier study (ref […]))
C[C@@H]1CNCCN1c1ncc(F)c(O[C@H](C)c2cccc(F)c2)n1 [(R,R)-4d, 5-Fluoro-4-((R)-1-(3-fluorophenyl)ethoxy)-2-((R)-2-methylpiperazin-1-yl)pyrimidine]	2.6 nM	1.2 nM	78%	98 nM	67.5%	1160 nM	28.1%	
C[C@@H]1CNCCN1c1ncc(F)c(O[C@H](C)c2ccc(F)cc2)n1 [(R,R)-4e, 5-Fluoro-4-((R)-1-(4-fluorophenyl)ethoxy)-2-((R)-2-methylpiperazin-1-yl)pyrimidine]	19 nM	4 nM	10%		42.7%		26.7%	
C[C@H](Oc1nc(N2CCNC[C@H]2C)ncc1F)c1cccc(F)c1 [(S,R)-4d, 5-Fluoro-4-((S)-1-(3-fluorophenyl)ethoxy)-2-((R)-2-methylpiperazin-1-yl)pyrimidine]	67 nM	14 nM	67.7%	806 nM	29.5%		22.8%	
C[C@H](Oc1nc(N2CCNC[C@H]2C)ncc1F)c1ccc(F)cc1 [(S,R)-4e, 5-Fluoro-4-((S)-1-(4-fluorophenyl)ethoxy)-2-((R)-2-methylpiperazin-1-yl)pyrimidine]	128 nM	23 nM	67.3%	1120 nM			5.2%	
C[C@H](Cc1cccc(F)c1)Oc1nc(N2CCNC[C@H]2C)ncc1F [compound 3, pyrimidine analogue 3]			89%	353 nM	65.6%	1160 nM	37.4%	7.9 nM
